Laboratory results published in publication PMC5847527, “Identification of a novel 2-oxindole fluorinated derivative as in vivo antitumor agent for prostate cancer acting via AMPK activation” (Scientific Reports, 2018).

How the values were obtained:
Cyclin D1 = Cyclin D1 level by Western blot in PC-3 and LNCaP cells; assay type: cell-based, human
Description: (§1) Figure 4 Cell Cycle analysis in 8c-treated prostate cancer cells. (A) PC-3 and LNCaP cells were treated with compound 8c for 24 hours and cell cycle analysis was analyzed by flow cytometry using Propidium Iodide (PI). Percentage of cells in subG0, G1, S, and G2/M phases is indicated in the histogram. (B) Levels of Cyclin D1, p-p53, p53, p21 and cleaved Caspase 3 (17 kDa fragment) were determined by Western blot. Upper panel, representative Western blot of two different experiments. β-tubulin (β-Tub) serves as a loading control. Lower panel, the densitometric analyses of bands represented as the mean ± SD of the two different experiments. *p < 0.05 and **p < 0.01 compared with the control group by the Student’s t-test.
There are many intracellular mechanisms whereby AMPK activation inhibits cell growth. […] To further investigate the mechanism underpinning the cell viability inhibitory effect of compound 8c, levels of Cyclin D1 were determined by Western blot in PC-3 and LNCaP cells.
(§2) Cells were lysed in Lysis buffer (50 mM Tris pH 7.4, 0.8 M NaCl, 5 mM MgCl2, 0.1% Triton X-100) containing Protease Inhibitor and Phosphatase inhibitor Cocktails (Roche, Basel, Switzerland). Protein concentrations were measured by BioRad™ protein assay kit (Richmond, CA, USA). […] Films were analyzed by densitometry. […]

p53 = p53 and p-p53 level by Western blot in LNCaP cells; assay type: cell-based, human
Description: as §1, with “Lower panel, the densitometric analyses of bands represented as the mean ± SD of the two different experiments. *p < 0.05 and **p < 0.01 compared with the control group by the Student’s t-test.” left out
Cyclin D1 activity is modulated by several inhibitors such as p21 which negatively regulate cell cycle progression by interacting with cyclin dependent kinases (cdks). […] To further study the role of compound 8c in cell cycle, we determined the expression of p21, p53 and the levels of cleaved caspase 3 in the prostate cells. P53 was only determined in LNCaP cells since PC-3 cells are p53-negative[40].
as §2

PC-3 xenograft tumors = assay: PC-3 xenograft tumor growth in nude mice; assay type: in vivo; settings: 5 mg/Kg daily, 15 days
Text: (§3) To validate the therapeutic value of the compound 8c against castration-resistant prostate cancer a murine xenograft model was employed. Due to the potent effect of compound 8c on the aggressive PC-3 cell line and in order to avoid unnecessary wasting of animals according to the 3 Rs guidelines (reduction, replacement, refinement) for the use of animals in research, we only use PC-3 cells for the in vivo studies. PC-3 tumors were induced in nude mice by subcutaneous injection of cells in the right flank of the mouse. When tumors reached a 70 mm^3 volume, mice were daily treated with 5 mg/Kg of compound 8c. In vehicle-treated mice, an increase in tumor growth volume was observed during the course of the study and at the end of experimentation (Fig. 8A).
Figure 8 Inhibition of prostate tumor xenograft growth in vivo by compound 8c. […]
(§4) Male immunodeficient nude-Foxn1 (nu/nu) mice (Envigo RMS, Barcelona, Spain), 4 to 6 week old, were used for all xenograft studies. […] Tumors were measured with external calipers and volume was calculated by the modified ellipsoidal formula as volume = length × (width)^2 × 0.52 mm^3 [52],[53]. At the end of the study, the mice were sacrificed by placing them in a CO2 gas-filled chamber, and the excised tumors were recovered and homogenized in lysis buffer for protein quantification and Western blotting.

[1] = Tolerability in PC-3 xenograft mice (weight, serum parameters, liver); assay type: in vivo; settings: 5 mg/Kg daily, 15 days
Text: as §3
as §4, with “blotting. […]” for “blotting.”

Compound: O=C1Nc2ccccc2C1(F)Cc1ccc(-c2ccccc2)o1 (stereo not drawn) [Compound 8c, 3-fluoro-3-((5-phenylfuran-2-yl)methyl)indolin-2-one]
- Cyclin D1 level (Cyclin D1): marked decrease in Cyclin D1 level
- total and phosphorylated p53 (p53): increase in the total and phosphorylated forms of p53
- AMPK activation, ACC phosphorylation, Cyclin D1 and procaspase-3 levels in xenograft tumors (PC-3 xenograft tumors; Western blot of tumors): promoted AMPK activation, increased ACC phosphorylation, decreased Cyclin D1 and decreased procaspase-3 levels
- xenograft tumor growth (PC-3 xenograft tumors; subcutaneously, nude mice, vs vehicle): significantly reduced tumor growth
- liver morphology [1]: Liver morphology was normal
- mice weight or animal welfare [1]: No effect on mice weight or animal welfare
